In brackets after ≈: the same amount, converted by molar mass. Structures can show the parent of a compound that is named as a salt. Where two headings read alike, the source gives them in different places.
Legend:
[1] = tested on: pancreas BXPC-3; assay: Cancer cell growth inhibition, pancreas BXPC-3; format: cell-based, human; settings: Homo sapiens, pancreas BXPC-3
Procedure: (§1) Biology The cancer cell growth inhibitory properties were examined using the murine P388 lymphocytic leukemia cell line and a selection of human cancer cell lines.
(§2) All of the synthetic products were evaluated against a minipanel of human cancer cell lines, the murine P388 lymphocytic leukemia cell line and a selection of microorganisms.

[2] = tested on: CNS SF-268; assay: Cancer cell growth inhibition, CNS SF-268; format: cell-based, human; settings: Homo sapiens, CNS SF-268
Procedure: as §1, §2

[3] = tested on: colon KM 20L2; assay: Cancer cell growth inhibition, colon KM 20L2; format: cell-based, human; settings: Homo sapiens, colon KM 20L2
Description: (§3) Evaluation of demethyloxyaaptamine (3), aaptamine (1), isoaaptamine (2) and hystatin 1 (11) against the Arizona State University Cancer Research Institute's human tumor cell line panel (Table 1) and the NCI 60-cell line human tumor screen were undertaken. (Boyd, M. R., Cancer: Principles and Practices of Oncology Updates; DeVita, et al., Eds; Lippincott: Philadelphia, 1989, Vol. 10, No. 3, pp. 1-12; Boyd, et al., Drug Development Research 1995, 34, 91-109; Boyd, M. R., et al. Cytotoxic Anticancer Drugs: Models and Concepts for Drug Discovery and Development; Valeriote, A., et al., Eds, Kluwer Academic Publishers: Amsterdam, 1992, pp. 11-34.)
as §1, §2

[4] = tested on: Cryptococcus neoformans; assay: Broth microdilution susceptibility assay, Cryptococcus neoformans; format: cell-based; settings: for MIC: Table 4, read-out: Range of minimum inhibitory concentration; for Range of minimum inhibitory concentration: Table 6
[5] = tested on: Streptococcus pneumoniae; assay: Broth microdilution susceptibility assay, Streptococcus pneumoniae; format: cell-based; settings: for MIC: Table 4, read-out: Range of minimum inhibitory concentration; for Range of minimum inhibitory concentration: Table 6
[6] = tested on: prostrate DU-145; assay: Cancer cell growth inhibition, prostate DU-145; format: cell-based, human; settings: Homo sapiens
Procedure: as §1, §2

[7] = tested on: Neisseria gonorrhoeae; assay: Broth microdilution susceptibility assay, Neisseria gonorrhoeae; format: cell-based; settings: for MIC: Table 4, read-out: Range of minimum inhibitory concentration; for Range of minimum inhibitory concentration: Table 6
[8] = tested on: Stenotrophomonas maltophilia; assay: Broth microdilution susceptibility assay, Stenotrophomonas maltophilia; format: cell-based; settings: for MIC: Table 4, Stenotrophomonas maltophil, read-out: Range of minimum inhibitory concentration; for Range of minimum inhibitory concentration: Table 6
[9] = tested on: murine P388 lymphocytic leukemia cell line; assay: Cancer cell growth inhibition, murine P388 lymphocytic leukemia cell line; format: cell-based; settings: for IC50: Mus musculus; for P388 ED50: murine P388
Description: as §3, §1, §2

[10] = tested on: Candida albicans; assay: Broth microdilution susceptibility assay, Candida albicans; format: cell-based; settings: for MIC: Table 4, read-out: Range of minimum inhibitory concentration; for Range of minimum inhibitory concentration: Table 6
[11] = tested on: Enterobacter cloacae; assay: Broth microdilution susceptibility assay, Enterobacter cloacae; format: cell-based; settings: for MIC: Table 4, read-out: Range of minimum inhibitory concentration
[12] = tested on: Staphylococcus aureus; assay: Broth microdilution susceptibility assay, Staphylococcus aureus; format: cell-based; settings: for MIC: Table 4, read-out: Range of minimum inhibitory concentration; for Range of minimum inhibitory concentration: Table 6
[13] = tested on: Escherichia coli; assay: Broth microdilution susceptibility assay, Escherichia coli; format: cell-based; settings: for MIC: Table 4, read-out: Range of minimum inhibitory concentration; for Range of minimum inhibitory concentration: Table 6
[14] = tested on: Micrococcus luteus; assay: Broth microdilution susceptibility assay, Micrococcus luteus; format: cell-based; settings: for MIC: Table 4, read-out: Range of minimum inhibitory concentration; for Range of minimum inhibitory concentration: Table 6
[15] = tested on: lung NCI-H460; assay: Cancer cell growth inhibition, lung NCI-H460; format: cell-based, human; settings: Homo sapiens, lung NCI-H460
Description: as §3, §1, §2

[16] = tested on: breast MCF-7; assay: Cancer cell growth inhibition, breast MCF-7; format: cell-based, human; settings: Homo sapiens, MCF7, breast MCF-7
Procedure: as §1, §2

[17] = tested on: Enterococcus faecalis; assay: Broth microdilution susceptibility assay, Enterococcus faecalis; format: cell-based; settings: for MIC: Table 4, read-out: Range of minimum inhibitory concentration
[18] = biological target: PKC alpha (Homo sapiens, UniProt P17252); assay: Inhibition of PKC catalytic activity (peptide substrate phosphorylation); format: biochemical; settings: 30 μM compound; 1 μM phorbol 12-myristate 13-acetate, 100 μg/ml phospholipid; mean±SEM, three experiments; read-out: percent inhibition of PKC catalytic activity
Description: We further evaluated the ability of the derivatives to inhibit PKC catalytic activity. […] Inhibition by 10c was 19.5±7.6% and inhibition by 4, 5, and 9a, b, c was 6% or less (all values are mean±SEM, three experiments). […] In both cases, the inhibition curves were steeper than predicted for a competitive inhibitor, consistent with a complicated mechanism of action (Hill coefficients for 10a and 10b of 1.5±0.1 and 2.0±0.5, respectively).

[19] = Table 3, read-out: Cancer cell growth inhibitory ED50
[20] = Table 3, prostrate DU-145, read-out: Cancer cell growth inhibitory ED50
[21] = P388, Table 3, leukemia P-388, read-out: Cancer cell growth inhibitory ED50
[22] = Table 5, read-out: Cancer Cell Line Results ED50
[23] = DU-145, Table 5, prostate DRU-145, read-out: Cancer Cell Line Results ED50
[24] = Table 5, leukemia P388, read-out: Cancer Cell Line Results ED50

Structure (SMILES)	IC50 [1, 19] [µg/mL]	IC50 [2, 19] [µg/mL]	IC50 [3, 19] [µg/mL]	MIC [4] [µg/mL]	MIC [5] [µg/mL]	IC50 [6, 20] [µg/mL]	MIC [7] [µg/mL]	MIC [8] [µg/mL]	IC50 [9, 21] [µg/mL]	MIC [10] [µg/mL]	MIC [11] [µg/mL]	MIC [12] [µg/mL]	MIC [13] [µg/mL]	MIC [14] [µg/mL]	IC50 [15, 19] [µg/mL]	IC50 [16, 19] [µg/mL]	MIC [17] [µg/mL]	IC50 [1, 22] [µg/mL]	IC50 [2, 22] [µg/mL]	IC50 [3, 22] [µg/mL]	also measured
COc1cc2c3c(ccnc3c1O)N(C)C=C2 [Compound 8, 4-Methyl-8-methoxy-9-hydroxy-4H-benzo[de][1,6]naphthyridine]	> 10	> 10	> 10	> 64	> 64	> 10	4 (≈ 17.5 µM)	> 64	> 10	> 64	> 64	> 64	> 64	> 64	> 10	> 10	> 64	–	–	–	–
COc1cc(CN2C=Cc3cc(OC)c(OC)c4nccc2c34)cc(OC)c1OC.Cl [Compound 9c, 8,9-Dimethoxy-4-(3,4,5-trimethoxybenzyl)-4H-benzo[de][1,6]naphthyridine hydrochloride]	–	–	–	–	–	–	–	–	–	–	–	–	–	–	–	–	–	> 10	> 10	3.4	inhibition at 30 µM [18]: ≤ 6%; Range of minimum inhibitory concentration [4]: * (no inhibition at 64 μg/mL); Range of minimum inhibitory concentration [5]: * (no inhibition at 64 μg/mL); melting point: 198 to 200 °C (dec.); IC50 [6, 23]: > 10 µg/mL; Range of minimum inhibitory concentration [7]: 64 µg/mL; Range of minimum inhibitory concentration [8]: * (no inhibition at 64 μg/mL); IC50 [9, 24]: 4.64 µg/mL; Range of minimum inhibitory concentration [10]: * (no inhibition at 64 μg/mL); Range of minimum inhibitory concentration [12]: * (no inhibition at 64 μg/mL); Range of minimum inhibitory concentration [13]: * (no inhibition at 64 μg/mL); Range of minimum inhibitory concentration [14]: * (no inhibition at 64 μg/mL); IC50 [15, 22]: > 10 µg/mL; IC50 [16, 22]: > 10 µg/mL
COc1cc(CN2C=Cc3cc(OC)c(OC)c4c3c2cc[n+]4Cc2cc(OC)c(OC)c(OC)c2)cc(OC)c1OC.[Br-] [Compound 10c, 8,9-Dimethoxy-1,4-bis-(3,4,5-trimethoxy-benzyl)-4H-benzo[de][1,6]-naphthyridin-1-ium bromide]	–	–	–	–	–	–	–	–	–	–	–	–	–	–	–	–	–	> 10	> 10	> 10	inhibition at 30 µM [18]: 19.5 ± 7.6%; Range of minimum inhibitory concentration [4]: * (no inhibition at 64 μg/mL); Range of minimum inhibitory concentration [5]: * (no inhibition at 64 μg/mL); melting point: 116 to 118 °C; IC50 [6, 23]: > 10 µg/mL; Range of minimum inhibitory concentration [7]: * (no inhibition at 64 μg/mL); Range of minimum inhibitory concentration [8]: * (no inhibition at 64 μg/mL); IC50 [9, 24]: > 10 µg/mL; Range of minimum inhibitory concentration [10]: * (no inhibition at 64 μg/mL); Range of minimum inhibitory concentration ([11]; Table 6): * (no inhibition at 64 μg/mL); Range of minimum inhibitory concentration [12]: * (no inhibition at 64 μg/mL); Range of minimum inhibitory concentration [13]: * (no inhibition at 64 μg/mL); Range of minimum inhibitory concentration [14]: 64 µg/mL; IC50 [15, 22]: > 10 µg/mL; IC50 [16, 22]: > 10 µg/mL; Range of minimum inhibitory concentration ([17]; Table 6): * (no inhibition at 64 μg/mL)
COc1cc2c3c(cc[n+](C)c3c1OC)N(C)C=C2.[I-] [Compound 5, 1,4-Dimethyl-8,9-dimethoxy-4H-benzo-[de][1,6]naphthyridin-1-ium iodide]	7.1	0.69	6.1	> 64	> 64	3.5	> 64	> 64	3.9	> 64	> 64	> 64	> 64	16 to 32	> 10	4.9	> 64	7.1	0.69	6.1	inhibition at 30 µM [18]: ≤ 6%; IC50 [6, 23]: 3.5 µg/mL; IC50 [9, 24]: 3.89 µg/mL; P388 ED50 [9]: 3.9 µg/mL; IC50 [15, 22]: > 10 µg/mL; IC50 [16, 22]: 4.9 µg/mL
COC1=Cc2ccnc3ccnc(c23)C1(OC)OC [Compound 12]	–	–	–	–	–	–	–	–	–	–	–	–	–	–	–	–	–	–	–	–	P388 ED50 [9]: 59 µg/mL
Oc1cc2ccnc3c2c(c1O)NC=C3 (as salt: hydrobromid) [Compound 15, 8,9-Dihydroxy-1H-Benzo[de][1,6]naphthyridine hydrobromide]	–	–	–	–	–	–	–	–	–	–	–	–	–	–	–	–	–	–	–	–	melting point: 245 to 248 °C (dec.)
COc1ccc(CN2C=Cc3cc(OC)c(OC)c4c3c2cc[n+]4C)cc1.[I-] [Compound 17, 1-Methyl-4-(4-methoxybenzyl)-8,9-dimethoxy-4H-benzo[de][1,6]-naphthyridin-1-ium iodide]	7	5.9	5.4	> 64	> 64	7.5	64	> 64	3.1	> 64	> 64	> 64	> 64	4 to 8	4.6	8	> 64	–	–	–	–

From patent publication US20050187240A1, “Aaptamine and isoaaptamine and structural modifications thereof” (The Arizona Board of Regents, Acting for and on behalf of …, priority 2004, published 2005)
